Laboratory results reported in US7371365B2, “Methods for detecting parenchymal plaques in vivo” (Mayo Foundation for Medical Education and Research, priority 2000, dated 2008).

Key:
β-amyloid plaques = assay: MRI (7 Tesla, T2W/T1W) of post-mortem brain with thioflavin S histologic correlation after IV injection of probe in mice; type: in vivo, APP-PS1 transgenic mice; details: for T1 plaque enhancement on T1W images / accelerated T2 relaxation on T2W images: APP-PS1 transgenic mouse, four hours
[1] = test system: amyloid deposits in AD temporal lobe cortex sections; assay: Labeling of amyloid deposits in vitro in AD temporal lobe cortex sections (film and emulsion autoradiography); type: binding, human; details: for specificity of binding for type of amyloid deposit: AD temporal lobe cortex sections in vitro
Experimental: The sections were washed with TBS, pH 7.0 four times and then rinsed briefly with distilled water twice. The sections were allowed to air dry overnight in a box with desiccant at 4° C.
Sections then underwent immunohistochemistry (IH) for amyloid using an anti-Aβ monoclonal mouse antibody (4G8, Senetek). Untreated sections were included as a positive control for antibody staining. After rehydrating with TBS, pH 7.6, the sections were fixed briefly with neutral-buffered, 10% formalin for 3 minutes. The sections were washed with TBS and then blocked with 1.5% normal horse serum in TBS for 30 minutes. The sections were incubated with the anti-Aβ primary antibody at a dilution of 1:1000 in 0.1% BSA/TBS overnight at 4° C. The primary antibody was then visualized using a Vectastain Elite ABC, immunoperoxidase kit with diaminobenzidine (DAB) as a substrate according to the instructions (Vector Laboratories). The sections were allowed to air dry overnight in a box with desiccant at 4° C.
FIGS. 2A-2B are the film autoradiographs. Note the presence of punctate areas of exposed film located predominantly in the regions corresponding to gray matter. This is similar to the distribution of amyloid deposits seen following IH of the tissue sections. It was possible to overlay the two for direct correspondence under the microscope.
In order to definitively correlate the IH with the iodinated peptide by colocalization, the sections were next dipped in an autoradiographic emulsion (Type NTB-3, Kodak). The slides were dipped in emulsion at 43° C. under Safelight illumination in a darkroom. The slides were chilled to solidify the emulsion and then allowed to air dry at room temperature for 3 hours in a light-proof box. The slides were exposed at 4° C. in a light-proof box with desiccant. The slides were developed with Dektol developer (Kodak) and fixed (Kodak) according to the instructions. The sections were dehydrated with successive changes of ethanol and xylene and then coverslipped with a xylene-based mounting media (CMS).

[2] = test system: parenchymal amyloid deposits; assay: Labeling of amyloid deposits in vivo after i.v. injection in APP, PS1 transgenic mice; details: 200 μg i.v., four hours, emulsion autoradiography, PS1 transgenic mice 27 weeks of age
Sequence of parenchymal amyloid deposits (P05067 672-711 limits assumed): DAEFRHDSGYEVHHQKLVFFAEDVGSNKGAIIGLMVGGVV
From the text: These mice develop amyloid deposits and behavioral deficits within 12 weeks of age. Hemizygous transgenic mice (Tg2576) expressing mutant human amyloid precursor protein (APP695) were mated with a second strain of hemizygous transgenic mice (M146L5.1) expressing mutant human presenilin 1 (PS1). Holcomb, L., et al., Nature Med. 4:97-100 (1998). The animals were genotyped for the expression of both transgenes by a dot blot method using a sample of mouse tail DNA. The mice were housed in a virus-free barrier facility under a 12-hour light/dark cycle, with ad lib access to food and water.
After four hours, each animal was perfused with PBS and fixed with neutral-buffered, 10% formalin following an overdose with sodium pentobarbital (75 mg/kg, i.p.). After cryoprotecting in 10% and 30% sucrose in PBS, frozen sections of each brain were cut with a freezing microtome and then processed with anti-Aβ IH and emulsion autoradiography for the presence of radiolabeled amyloid deposits using the same methods described above for the human AD sections.

[3] = in vivo, iv; cited from earlier work
[4] = test system: β-amyloid plaques in human AD brain sections; assay: Labeling of AD amyloid plaques in vitro with putrescine- and gadolinium-labeled Aβ; type: binding; details: equal amounts of radioactivity
From the text: Labeling of AD Amyloid Plaques In Vitro with Putrescine- and Gadolinium-Labeled Aβ. […] The slides were dipped in emulsion, exposed, and developed according to the instructions. The sections were dehydrated with successive changes of ethanol and xylene and then coverslipped.

BBB [5] = type: in vivo, Sprague-Dawley rats; details: rat
Experimental: Poduslo, J. F. and Curran, G. L., Proc. Natl. Acad. Sci. USA 89:2218-2222 (1992); Poduslo, J. F. and Curran, G. L., Molec. Brain Res. 23:157-162 (1994); and Poduslo, J. F., et al., Proc. Natl. Acad. Sci. USA 9:5705-5709 (1994). Putrescine modification of synthetic human Aβ1-40 was performed by covalent linkage of the polyamine to carboxylic acid groups using carbodiimide at a pH of 6.7. Poduslo, J. F. and Curran, G. L., J. Neurochem. 66:1599-1609 (1996); and Poduslo, J. F. and Curran, G. L., J. Neurochem.
PS and Vp values were determined in normal adult male Sprague-Dawley rats (400-450 g) obtained from Harlan. […] Blood (200 μl) was sampled from the brachial artery at several intervals during the next 15 minutes.

BBB [6] = details: mouse, in vivo
Experimental: PS and Vp Determination in Mice. […] Blood was sampled from the femoral artery at several intervals during the next 15 minutes. Whole blood was sampled directly, using heparinized micro-hematocrit capillary tubes and TCA extracted. The supernatant was separated from the pellet and both were counted in a gamma counter. The radioactivity in the pellet was expressed as a percentage of the total radioactivity found in both the pellet and supernatant. An aliquot of the peptide labeled with ^131I was then injected into the femoral vein 15 seconds prior to sacrifice of the animal to serve as a measure of residual plasma volume (Vp; μl/g). After collection of the final blood sample, the anesthetized animal was sacrificed. […] The permeability coefficient x surface area products (PS; 10^−6 ml/g/s) were then calculated using the Vp as a measure of residual plasma volume based on equations that have been discussed in detail elsewhere (Poduslo and Curran, supra (1996a); Poduslo and Curran, supra (1996b); Wengenack, et al., supra (1997); Poduslo, et al., supra (1998); Poduslo, et al., supra (2000); Poduslo, et al., supra (2001). Statistical evaluations of PS and Vp were performed using ANOVA followed by Bonferroni multiple comparisons.

Row | Compound | T1 plaque enhancement on T1W images (β-amyloid plaques; IV injection) | accelerated T2 relaxation on T2W images (β-amyloid plaques; IV injection) | labeling of parenchymal amyloid deposits in vivo [2] | specificity of binding for type of amyloid deposit [1] | amount of radiolabeled peptide present in PBS-perfused brain [3] [%] | exposure time required for detection of plaque binding (emulsion autoradiography) [4] | further results
1 | O=C([O-])CN(CCN(CC(=O)[O-])CC(=O)O)CCN(CC(=O)[O-])CC(=O)O.[Gd+3] [Gd-DTPA, gadolinium diethylenetriaminepentaacetic acid, reference compound] | No evidence of T1 plaque enhancement | expected focal areas of T2 acceleration that corresponded to plaques |  |  |  |  | 
2 | NCCCCN [putrescine, reference compound] |  |  |  |  |  |  | effect of unbound putrescine on binding of iodinated peptide to amyloid deposits ([1]; 10-fold excess unbound putrescine, 100 pM 125I-Aβ1-40 or 125I-PUT-Aβ1-40): no appreciable effect on binding of iodinated peptide
3 | Aβ 1-40: synthetic human amyloid β peptide 1-40, native (unmodified); radioiodinated for the measurements [reference compound] |  |  | did not exhibit labeling of any parenchymal amyloid deposits | specific for dense-core, neuritic-type amyloid deposits | 0.03 |  | 
4 | putrescine-gadolinium-amyloid-β peptide [PUT-Gd-Aβ] | many focal areas of accelerated T1 relaxation visible as bright spots | Numerous focal areas of accelerated T2 relaxation |  |  |  | one | T1 CNR (contrast-to-noise ratio) (β-amyloid plaques; APP-PS1 mice, IV injection, T1W MRI, mean ± SEM, n = 15 plaques): 7.13 ± 1.03; T1 PBR (plaque-to-background voxel intensity ratio) (β-amyloid plaques; APP-PS1 mice, IV injection, T1W MRI, mean ± SEM, n = 15 plaques, maximum intensity): 1.24 ± 0.04; T2 CNR (contrast-to-noise ratio) (β-amyloid plaques; APP-PS1 mice, IV injection, T2W MRI, mean ± SEM, n = 15 plaques): −8.95; T2 PBR (plaque-to-background voxel intensity ratio) (β-amyloid plaques; APP-PS1 mice, IV injection, T2W MRI, mean ± SEM, n = 15 plaques, minimum intensity): 0.29 ± 0.03; fold increase of T1 CNR in injected mice (β-amyloid plaques; APP-PS1 mice, T1 images): 4.2-9.4 fold; fold increase of T1 PBR in injected mice (β-amyloid plaques; APP-PS1 mice, T1 images): 1.2 fold; cortical tissue volume occupied by enhanced plaque (β-amyloid plaques; APP-PS1 mouse, T1W, interpretation of pixel proportion): roughly 10%; proportion of pixels within cortical ROI whose intensity exceeded the 4-S.D. threshold (β-amyloid plaques; APP-PS1 mouse, T1W, mean (±S.D.) across 10 images, 812.5×812.5 μm ROI): 9.9%; MRI features in non-transgenic mouse (focal areas of accelerated T1 relaxation) (β-amyloid plaques; non-transgenic mouse, compared with PBS-injected non-transgenic mouse (no focal T1 areas)): yielded the same results
5 | PUT Aβ 1-40: synthetic human Aβ1-40 with putrescine covalently linked to carboxylic acid groups using carbodiimide; radioiodinated for the measurements |  |  | able to cross the BBB and bind to amyloid deposits in vivo | specific for dense-core, neuritic-type amyloid deposits | 0.35 |  | increase of permeability at the blood brain barrier by putrescine modification (BBB [5]): two-fold; density of exposed silver grains on amyloid deposits (emulsion autoradiography) ([1]; equal amounts of radioactivity and exposure time (6 days), versus 125I-Aβ1-40): higher density of silver grains
6 | Gd-Aβ: Aβ (1-40) with DTPA chelating arm at the amino terminus, chelated with gadolinium; Aβ to Gd 1:1 | no significant plaque enhancement | accelerated T2 relaxation was observed in plaques |  |  |  | nine | effect of gadolinium labeling of Aβ on the PS value (BBB [6]): decrease in the PS value in five of the six brain regions, however, this was of non-significant magnitude
